Assay results reported in patent US6495567B1, “Triaryl methane compounds and their use in the treatment of diarrhea and scours” (Beth Israel Deaconess Medical Center, priority 1996, dated 2002).
Like-named read-outs stand apart in the source and are kept apart here.

Key:
[1] = test system: basolateral NaK2Cl cotransporters
basolateral K+ channel = test: 86Rb efflux from T84 monolayers (K+ channel activity); assay type: cell-based, human
Method: (§1) After four baseline samples were obtained, the cells were treated (at t=8 minutes) with vasoactive intestinal peptide (VIP, […]) or thapsigargin (5 μM) to stimulate Cl^− secretion, and an additional 15 timed samples were obtained. Finally, the cell monolayer was rinsed, cut with its support from the polystyrene ring, and the residual cell-associated radioactivity was determined. Monolayers were maintained at 37° C. in room air throughout the study. ^86Rb was counted by scintillation counting and normalized to percent total uptake as previously described (Venglarik, et al, Am. J. Physiol. (Cell Physiol. 28):C358-C364 (1990).

[2] = test system: apical membrane Cl- channels; test: 125I efflux from T84 monolayers; assay type: cell-based, human
Method: as §1, with “Cl—” for “Cl^−”, “^125I” for “^86Rb”, “gamma” for “scintillation”

T84 cells = test: Electrogenic Cl- secretion (short circuit current, Isc) in confluent T84 monolayers; assay type: cell-based, human
[3] = test system: basolateral NaK2Cl cotransporters; test: Bumetanide-sensitive 86Rb uptake in T84 monolayers; settings: 33 μM for 30 min
rabbit colonic mucosa = test: Ussing chamber studies using rabbit colonic mucosa; settings: clotrimazole 30 μM; forskolin 10 μM
Method: 4 male, New Zealand rabbits (2.5 kg) were anesthetized by an intravenous injection of pentobarbital (0.5 ml/kg). A 15 cm length of distal colon was removed and opened longitudinally. […] The volume of fluid on each side of the mucosa was 7 ml.
Potential difference and Isc were monitored continuously and registered every 10 minutes.

[4] = test system: apical membrane Cl- channels; test: Apical Cl- conductance in T84 monolayers permeabilized basolaterally with amphotericin B; assay type: cell-based, human; settings: symmetrical Cl- 142 mM; forskolin 10 μM
[5] = test system: intestinal fluid secretion induced by cholera toxin; assay type: in vivo, Balb/C mice
basolateral K+ channels = test: Basolateral K+ conductance in T84 monolayers permeabilized apically with amphotericin B; assay type: cell-based, human
Method: Selective mebrane Permeabilization and Measurement of Potassium Conductance of the Basolateral Membrane. The basolateral potassium conductance was measured using the technique developed by Dawson and co-workers. A potassium gradient (mucosal to serosal) was first established across the monolayer using asymmetric mucosal and serosal buffers containing K^+ as the sole permeant ion. The addition of amphotericin B (20 μM) to the mucosal reservoir forms conductive pores in the apical membrane, and thus removes all resistance to transepithelial potassium movement across this membrane. Thus, under the conditions of the experiment, in which the monolayer is short circuited (i.e., voltage-clamped at zero potential) and the transepithehal potassium gradient is constant, the amphotericin-dependent Isc becomes a measure of the rate of the transepithelial potassium flux across basolateral membranes. Changes in short circuit current (Isc), then represent changes in basolateral K^+ conductances (gK). Isc and K^+ conductances were measured using calomel electrodes, 3M KCI-agar bridges, and a voltage clamp (University of Iowa, Iowa City). To generate a voltage-current channel relationships, currents were elicited by 1 sec test potentials from −80 to +80 in 10 mV increments in the asymmetrical high K^+ gluconate solution.
Calculation of Basolateral Membrane K^+ Permeability: Membrane Permeabilities were Calculated According to the Formula:
^PK=(cm/s)=^JK(mM/cm^2·s)/Δ[K^+](mM/cm^3)
where Δ[K^+] is equal to the difference in K^+ concentration (135 mM) between the asymmetric apical and basolateral bathing solutions. Maximal Isc values were converted into K^+ fluxes by dividing by the Faraday constant F (96,500 coulombs/mol) as previously described (Huflejt et al., J. Clin. Invest. 93: 1900-1910 (1994)).
Basolateral K+ transport was examined in T84 monolayers permeabilized apically by pretreatment with amphotericin B. Apical and basolateral buffers contained K+ as the sole permeant ion. All studies were performed with a 135 mM basolaterally directed K+ gradient. This method has been utilized previously to examine both Cl— and K+ transport in T84 cells and HT29-Cl.16E cells. Briefly, ion conductances in the luminal or basolateral membranes of confluent T84 cell monolayers can be assessed separately by selectively permeabilizing the apical or basolateral membrane using the ionophore amphotericin B. This artificially removes all electrical resistance to ion transport across the plasma membrane containing pores formed by amphotericin B. As a result, the intact contralateral plasma membrane becomes rate limiting for transepithelial ion transport. Agonist-dependent changes in ion conductances can be assessed directly either as transepithelial short circuit current (Isc) in the presence of established ion gradients, or as transepithelial conductance (G) in the presence of established transepithelial potentials.

[6] = 33 μM, final 30 minutes of preincubation
[7] = forskolin 10 μM, carbachol 100 μM

## Clc1ccccc1C(c1ccccc1)(c1ccccc1)n1ccnc1 [clotrimazole]
[1]
  Bumetanide-sensitive fractional component of 86Rb uptake: 88±3.2 % total uptake
Basolateral K+ channel; 33 µM
  Reduction of rate constant for VIP-stimulated 86Rb efflux: 87%
Basolateral K+ channel; 33 μM clotrimazole, untreated 0.0465
  Rate constant for VIP-stimulated 86Rb efflux: 0.0062 % uptake/minute
Basolateral K+ channel; 33 μM clotrimazole, untreated 0.048, n=2
  Rate constant for thapsigargin-stimulated 86Rb efflux: 0.011 % uptake/minute
Basolateral K+ channel; [6]
  Effect of pretreatment on 86Rb loading of the cells: did not alter
Basolateral K+ channel; T84 cells with VIP or thapsigargin
  Inhibition of baseline and Ca++ stimulated 86RB efflux: significantly inhibited
[2]; 33 μM clotrimazole
  Effect on time course of 125I efflux from monolayers treated with VIP: little or no effect
[2]; [6]
  Effect of pretreatment on 125I loading of the cells: did not alter
[2]; VIP, 33 μM clotrimazole, not treated 0.0645, n=2 in duplicate
  Rate constant for 125I efflux: 0.0637 % uptake/minute
T84 cells; Homo sapiens, T84, read-out: IC50 for inhibition of secretory response to E. Coli heat-stabile toxin
  IC50: 15 µM
T84 cells; T84 cells
  Inhibition of cAMP and Ca++ elicited chloride secretion: most potent inhibitor tested
T84 cells; T84 cells, VIP 5 nM, BaCl 3 mM, charybdotoxin 100 nM
  Inhibition of Cl- secretory response (Isc) to cAMP mediated agonist VIP: inhibited
T84 cells; T84 cells, carbachol 100 mM, BaCl 3 mM, charybdotoxin 100 nM
  Inhibition of Cl- secretory response (Isc) to Ca++-dependent agonist carbachol: inhibited
T84 cells; T84 monolayers
  Apparent potency of inhibition at a fixed time point, basolateral versus apical application: greater when applied basolaterally than apically
  Inhibition with basolateral application alone compared with both sides of the monolayer: almost as effective as incubation on both sides
T84 cells; after 60 min recovery in the presence of 0.01 mg/ml bovine serum albumin, n=4
  Reversibility of inhibition of Cl- secretion: 96±2%
T84 cells; low doses (=10^-7 or less)
  Potentiation of Cl- secretory responses to either agonist at low doses: 5-10%
T84 cells; preincubation 33 μM, 5 μM VIP, 10 μM forskolin or 3 mM 8Br-cAMP
  Inhibition of secretory response to agonists of the cAMP signalling cascade: inhibited
T84 cells; pretreatment 33 μM, carbachol 100 μM, thapsigargin 5 μM or ionomycin 10 μm
  Inhibition of Cl- secretory response to Ca++-dependent agonists: inhibited strongly
T84 cells; same monolayers
  Inhibition of the synergistic secretory response to VIP plus carbachol: parallel the inhibition of secretion promoted by Ca^++ agonists alone
[3]; VIP, mean±SEM, n=6
  Reduction of total amount of 86Rb uptake: 53.6±15.8%
[3]; bumetanide 10 μM
  Effect on bumetanide-sensitive fractional component of 86Rb uptake: no effect
Rabbit colonic mucosa
  Inhibition of time course of forskolin induced Isc: inhibited strongly
[4]
  Effect on forskolin- or thapsigargin-stimulated Cl- conductances: no detectable effect
[5]; 5 hours
  Reduction of intestinal fluid secretion induced by cholera toxin: 86%
[5]; mouse, in vivo
  Effect on intestinal secretion in the absence of cholera toxin: no effect
Basolateral K+ channels; [7]
  Inhibition of time course of K+ transport after forskolin and carbachol: significantly inhibited

## CC(=O)N1CCN(c2ccc(OCC3COC(Cn4ccnc4)(c4ccc(Cl)cc4Cl)O3)cc2)CC1 (stereo not shown) [ketoconazole]
T84 cells; T84 cells
  Inhibition of cAMP and Ca++ elicited chloride secretion: effective at inhibiting chloride secretion

## C[N+](C)(C)CCOC(N)=O [carbachol]
Basolateral K+ channels; apically permeabilized monolayers
  Carbachol-induced IscK, carbachol added alone: 111.7±7.4 μA/cm^2
Basolateral K+ channels; apically permeabilized monolayers, forskolin 10 μM
  Carbachol-induced IscK, carbachol added after forskolin: 180.7±15.7 μA/cm^2

## [Ba+2].[Cl-].[Cl-] [BaCl2]
T84 cells
  Inhibition of Cl- secretory response (Isc) to Ca++-dependent agonist carbachol: no apparent affect
  Inhibition of Cl- secretory response (Isc) to cAMP mediated agonist VIP: strongly inhibited
Basolateral K+ channels; carbachol 100 μM, same monolayers, BaCl2 3 mM
  Effect on K+ transport induced by subsequent addition of carbachol: no detectable effect
Basolateral K+ channels; forskolin 10 μM, BaCl2 3 mM basolateral
  Inhibition of cAMP-sensitive IK elicited by forskolin: greater than 70%

## Clc1ccc(COC(Cn2ccnc2)c2ccc(Cl)cc2Cl)c(Cl)c1 (stereo not shown) [miconazole]
T84 cells; T84 cells
  Inhibition of cAMP and Ca++ elicited chloride secretion: effective at inhibiting chloride secretion

## Clc1ccc(COC(Cn2ccnc2)c2ccc(Cl)cc2Cl)cc1 (stereo not shown) [econazole]
T84 cells; T84 cells
  Inhibition of cAMP and Ca++ elicited chloride secretion: effective at inhibiting chloride secretion

## C[C@@H]1[C@H](O)[C@@H](C)/C=C/C=C/C=C/C=C/C=C/C=C/C=C/[C@H](O[C@@H]2O[C@H](C)[C@@H](O)[C@H](N)[C@@H]2O)C[C@@H]2O[C@](O)(C[C@@H](O)C[C@@H](O)[C@H](O)CC[C@@H](O)C[C@@H](O)CC(=O)O[C@H]1C)C[C@H](O)[C@H]2C(=O)O [amphotericin B]
Basolateral K+ channels; amphotericin B apical
  Increase in conductance on initial permeabilization: 49±19%

## charybdotoxin
T84 cells
  Inhibition of Cl- secretory response (Isc) to Ca++-dependent agonist carbachol: strongly inhibited
  Inhibition of Cl- secretory response (Isc) to cAMP mediated agonist VIP: minimal affects
Basolateral K+ channels; charybdotoxin 100 nM
  Effect on K+ transport induced by subsequent addition of forskolin: no detectable effect
Basolateral K+ channels; pretreatment with charybdotoxin 100 nM
  Inhibition of carbachol induced Ca++ IK: 50%

## OC(c1ccccc1)(c1ccccc1)c1ccccc1Cl [2-chlorophenyl-bis-phenyl methanol]
T84 cells; T84 cells
  Inhibition of cAMP and Ca++ elicited chloride secretion: effective at inhibiting chloride secretion
Basolateral K+ channels; [7]
  Inhibition of time course of K+ transport after forskolin and carbachol: Nearly identical results
